Assay type in all cases: cell-based
In assay [1] the test system is interferon-induced 17-kDa/15-kDa protein (IFNp15/p17). Description: RT-PCR expression level of IFNp15/p17 gene in monocytes. To be noted: human monocytes, 30 PCR cycles. The protocol:
(§1) Four-hundred milliliters of blood was collected from a human normal individual donor. The collected blood was diluted 2-folds with PBS(−), overlaid on Ficoll-paque (manufactured by Pharmacia), and centrifuged at 500×g for 20 minutes. The peripheral blood mononuclear cells (PBMCs) in the intermediate layer was collected with a pipette, and washed with RPMI 1640 medium (manufactured by Bio Whittaker). The collected PBMCs was suspended in a storage solution of 90% FCS (manufactured by JRH Biosciences)/10% dimethyl sulfoxide, and stored in liquid nitrogen. During the experiment, these stored PBMCs were rapidly melted in water bath at 37° C., and washed with RPMI 1640 medium containing 10 μg/ml Dnase (manufactured by Calbiochem). Thereafter, the number of living cells was calculated by trypan blue staining method, and subjected to each experiment.
(§2) PBMCs were suspended in RPMI 1640 medium containing 5% human serum of blood type-AB, 0.1 mM nonessential amino acid, 1 mM sodium pyruvate, 2 mM L-glutamine (hereinabove manufactured by Bio Whittaker), 10 mM HEPES (manufactured by nakalai tesque), and 1% streptomycin-penicillin (manufactured by Gibco BRL) (hereinafter simply referred to as “5HRPMI medium”) so as to have a concentration of 4×10^6 cells/ml. Thereafter, the suspension was spread on a 6-well cell culture plate (manufactured by Falcon) in a volume of 3 ml/well, and the cells were incubated in a wet-type incubator at 37° C. and 5% CO2 for 1.5 hours. After 1.5 hours, the non-adherent cells were removed by suction, and each well was washed with RPMI 1640 medium, and 2 ml of the 5HRPMI medium was added to the wells, to give monocytes.
(§3) To the monocytes obtained above was added in each well 8 μl of an aqueous DGE solution, or 8 μl of water as a control, and the cells were incubated in a wet-type incubator at 37° C. and 5% CO2 for 5 hours. Thereafter, with addition of 2 μl of a 1 μg/ml aqueous LPS solution or 2 μl of a 25 μM TPA dimethyl sulfoxide solution to each well, or with addition of neither of these substances thereto, the cells were cultured for additional 4 hours. Thereafter, RNA was prepared from each cell in accordance with the description of the kit using RNeasy Mini Kit (manufactured by QIAGEN, 74104). The group with addition of water alone or the aqueous DGE solution alone to the cells was set as a negative control, and the group with addition of water and the aqueous LPS solution or the aqueous TPA solution to the cells was set as a positive control.
(§4) A liquid mixture having a total volume of 60 μl of 0.5 μg of RNA prepared above, 10 mM Tris-HCl (pH 8.3), 50 mM KCl, 5 mM MgCl2, 1 mM dNTP mixtures, 150 pmol of Random 6 mers, 60 U Ribonuclease Inhibitor (manufactured by Takara Shuzo Co., Ltd., 2310A), and 15 U Reverse Transcriptase XL (AMV) (manufactured by Takara Shuzo Co., Ltd., 2620A) were incubated at 30° C. for 10 minutes and thereafter at 42° C. for 1 hour using a thermal cycler (GeneAmp PCR System 9600, manufactured by Applied Biosystems), and the mixture was heated at 99° C. for 5 minutes to deactivate the enzyme, to give cDNA.
(§5) Oligonucleotide primers for reaction of PCR were designed based on mRNA nucleotide sequence of each gene listed in the following tables, and synthesized in the same manner as above. In Tables 4 and 5, each gene evaluated in this Example, GenBank Accession NO, the name of oligonucleotide primers and SEQ ID NOs of the primers in Sequence Listing were listed. […]

Assay [2] concerns macrophage inflammatory protein-1-β (MIP1β). Description: RT-PCR expression level of MIP1β gene in monocytes. To be noted: human monocytes, 30 PCR cycles. On the procedure: as §1, §2, §3, §4, §5
Assay [3] has as its system macrophage inflammatory protein-2-α (MIP2α). Description: RT-PCR expression level of MIP2α gene in monocytes. To be noted: human monocytes, 35 PCR cycles. On the procedure: as §1, §2, §3, §4, §5
Assay [4] has as its system GABA(A) receptor-associated protein (GABArp). The experiment in a line: RT-PCR expression level of GABArp gene in monocytes. To be noted: human monocytes, 30 PCR cycles. The protocol:
as §1, §2, §3, §4, §5

Assay [5] deals with Nef-associated factor-1 (NAF1). The experiment in a line: RT-PCR expression level of NAF1 gene in monocytes. To be noted: human monocytes, 30 PCR cycles. The protocol:
as §1, §2, §3, §4, §5

Assay [6] deals with lyzozyme (Lyz). Description: RT-PCR expression level of Lyz gene in monocytes. To be noted: human monocytes, 30 PCR cycles. On the procedure: as §1, §2, §3, §4, §5
Assay [7] relates to regulator of G-protein signaling-2 (RGS2). Description: RT-PCR expression level of RGS2 gene in monocytes. To be noted: human monocytes, 35 PCR cycles. On the procedure: as §1, §2, §3, §4, §5
Assay [8] concerns interferon-inducible protein p78 (IFNp78). Description: RT-PCR expression level of IFNp78 gene in monocytes. To be noted: human monocytes, 30 PCR cycles. The protocol:
as §1, §2, §3, §4, §5

For assay [9], the system named is CD37 antigen (CD37). The experiment in a line: RT-PCR expression level of CD37 gene in monocytes. To be noted: human monocytes, 35 PCR cycles. The protocol:
as §1, §2, §3, §4, §5

Assay [10] relates to signal peptidase complex (18 kDa) (SPC18). The experiment in a line: RT-PCR expression level of SPC18 gene in monocytes. To be noted: human monocytes, 30 PCR cycles. The protocol:
as §1, §2, §3, §4, §5

[11] abbreviates: substance added alone, Con. (water) +.
[12] abbreviates: substance added alone, Con. (water) +/−.
The mark [13] stands for this setting: L + D: DGE and LPS, LPS alone +++.
Where [14] appears, read: T + D: DGE and TPA, TPA alone +.
The mark [15] stands for this setting: L + D: DGE and LPS, LPS alone +/−.
[16] abbreviates: L + D: DGE and LPS, LPS alone ++.
The mark [17] stands for this setting: T + D: DGE and TPA, TPA alone +/−.
[18] abbreviates: L + D: DGE and LPS, LPS alone −.

Regarding “12-o-tetradecanoylphorbol 13-acetate [TPA, reference compound]”, the “expression level of IFNp15/p17 gene” value in [1] (setting [11]) is on record as “+”. Moreover, the “expression level of MIP1β gene” value in assay [2] (setting [11]) is reported as “++”. In addition, the “expression level of MIP2α gene” value in assay [3] (setting [12]) is “+”. Moreover, the “expression level of GABArp gene” value in assay [4] (setting [11]) is given as “+”. Moreover, in assay [5] (setting [11]), the “expression level of NAF1 gene” value was “+/−”. Besides, in assay [6] (setting [11]), the “expression level of Lyz gene” value was “+/−”. Besides, the “expression level of RGS2 gene” value in assay [7] (setting [12]) is “+/−”. Further, the “expression level of IFNp78 gene” value in [8] (setting [11]) is recorded as “+”. In assay [9] (setting [12]), the “expression level of CD37 gene” value is reported as “+/−”. Moreover, the “expression level of SPC18 gene” value in assay [10] (setting [11]) is listed as “+”.
Consider `O=C1C=CC(CO)OC1O` [DGE, L-glycero-1,5-epoxy-1αβ,6-dihydroxy-cis-hex-3-en-2-one], for which the “expression level of IFNp15/p17 gene” value in assay [1] (setting [13]) is recorded as “+/−”; in assay [1] (setting [14]), “+/−”; in assay [1] (setting [11]) it was “+”. The “expression level of MIP1β gene” value is listed as “+/−” in assay [2] (setting [13]); “+/−” in [2] (T + D: DGE and TPA, TPA alone ++); “+/−” in [2] (setting [11]). Besides, the “expression level of MIP2α gene” value in assay [3] (L + D: DGE and LPS, LPS alone +) is “+/−”; in assay [3] (setting [14]), “+/−”; in assay [3] (setting [12]), “+/−”. The “expression level of GABArp gene” value in [4] (setting [15]), in assay [4] (setting [14]) and in assay [4] (setting [11]) was “+” in each case. Further, the “expression level of NAF1 gene” value in assay [5] (setting [16]) was “+/−”; in [5] (setting [17]), “−”; in assay [5] (setting [11]), “−”. Also, the “expression level of Lyz gene” value in assay [6] (setting [15]), in assay [6] (setting [17]) and in [6] (setting [11]) was “+” in each case. In addition, the “expression level of RGS2 gene” value in [7] (setting [18]), in [7] (setting [17]) and in assay [7] (setting [12]) was “+/−” throughout. Besides, the “expression level of IFNp78 gene” value is given as “−” in assay [8] (setting [16]), “+/−” in assay [8] (setting [14]) and “+/−” in [8] (setting [11]). In addition, the “expression level of CD37 gene” value in assay [9] (setting [18]) is recorded as “+”; in [9] (setting [17]), “+/−”; in assay [9] (setting [12]), “+/−”. Moreover, the “expression level of SPC18 gene” value in assay [10] (setting [15]), in assay [10] (setting [14]) and in assay [10] (setting [11]) was “+” in each case.
“lipopolysaccharide [LPS, reference compound]”: the “expression level of IFNp15/p17 gene” value in [1] (setting [11]) is “+++”. Besides, in [2] (setting [11]), the “expression level of MIP1β gene” value was “+++”. For the same molecule, the “expression level of MIP2α gene” value in [3] (setting [12]) was “+”. The “expression level of GABArp gene” value in assay [4] (setting [11]) was “+/−”. Moreover, in assay [5] (setting [11]), the “expression level of NAF1 gene” value is on record as “++”. In addition, the “expression level of Lyz gene” value in [6] (setting [11]) is listed as “+/−”. The “expression level of RGS2 gene” value in assay [7] (setting [12]) is “−”. The “expression level of IFNp78 gene” value in assay [8] (setting [11]) is “++”. In addition, in assay [9] (setting [12]), the “expression level of CD37 gene” value is listed as “−”. In addition, the “expression level of SPC18 gene” value in assay [10] (setting [11]) is “+/−”.
